From patent US20230107642A1 (Erasca, Inc., priority 2020, published 2023)

molecular target: T1, K-Ras G12C (Homo sapiens, UniProt P01116, G12C); test: CAF assay (% CAF; method in Example 7, not in this part); format: binding; conditions: 10 uM compound, 1 h incubation
T1 construct: This protein contained 188 amino acids in total, including an N-terminal 6-Histidine tag; made in house; host or cells: E. coli BL21

| % CAF @ 10 uM, 1h | Compound |
| --- | --- |
| 81.2% | C=CC(=O)N1C[C@H](C)N(c2nc(=O)n3c4c(c(-c5ccc(F)cc5F)c(C(F)(F)F)cc24)SC[C@@H]3COCCOC)C[C@H]1C [Example 498, (3S)-7-((2S,5R)-4-acryloyl-2,5-dimethylpiperazin-1-yl)-10-(2,4-difluorophenyl)-3-((2-methoxyethoxy)methyl)-9-(trifluoromethyl)-2H-[1,4]thiazino[2,3,4-ij]quinazolin-5(3H)-one] |
| 76.4% | C=CC(=O)N1C[C@H](C)N(c2nc(=O)n3c4c(c(-c5ccc(F)cc5)c(Cl)cc24)SC[C@@H]3COC)C[C@H]1C [Example 573, (S)-7-((2S,5R)-4-acryloyl-2,5-dimethylpiperazin-1-yl)-9-chloro-10-(4-fluorophenyl)-3-(methoxymethyl)-2H-[1,4]thiazino[2,3,4-ij]quinazolin-5(3H)-one] |
| 61.2% | C=CC(=O)N1CCN(c2nc(=O)n3c4c(c(-c5cc(F)c(F)cc5F)c(Cl)cc24)SC[C@@H]3CN2CCN(CC(F)F)CC2)[C@@H](C)C1 [Example 480, (3S)-7-((S)-4-acryloyl-2-methylpiperazin-1-yl)-9-chloro-3-((4-(2,2-difluoroethyl)piperazin-1-yl)methyl)-10-(2,4,5-trifluorophenyl)-2H-[1,4]thiazino[2,3,4-ij]quinazolin-5(3H)-one] |
| 10.4% | C=CC(=O)N1C[C@H](C)N(c2nc(=O)n3c4c(c(-c5ccc(F)cc5F)c(C(F)(F)F)cc24)SC[C@@H]3CN2CCN(CC#N)CC2)C[C@H]1C [Example 561, 2-(4-(((3S)-7-((2S,5R)-4-acryloyl-2,5-dimethylpiperazin-1-yl)-10-(2,4-difluorophenyl)-5-oxo-9-(trifluoromethyl)-3,5-dihydro-2H-[1,4]thiazino[2,3,4-ij]quinazolin-3-yl)methyl)piperazin-1-yl)acetonitrile] |
| 95.9% | C=CC(=O)N1C[C@H](C)N(c2nc(=O)n3c4c(c(-c5ccc(F)cc5F)c(C(F)(F)F)cc24)SCC2(COC2)C3)C[C@H]1C [Example 588, 8′-((2S,5R)-4-Acryloyl-2,5-dimethylpiperazin-1-yl)-11′-(2,4-difluorophenyl)-10′-(trifluoromethyl)-2′H,4′H,6′H-spiro[oxetane-3,3′-[1,4]thiazepino[2,3,4-ij]quinazolin]-6′-one] |

The remaining lines, values behind:

| Compound | % CAF @ 10 uM, 1h |
| --- | --- |
| C=CC(=O)N1C[C@H](C)N(c2nc(=O)n3c4c(c(-c5cc(Cl)c(F)cc5F)c(Cl)cc24)SC[C@@H]3CC2CCN(CC(F)F)CC2)C[C@H]1C [Example 461, (3S)-7-((2S,5R)-4-acryloyl-2,5-dimethylpiperazin-1-yl)-9-chloro-10-(5-chloro-2,4-difluorophenyl)-3-((1-(2,2-difluoroethyl)piperidin-4-yl)methyl)-2H-[1,4]thiazino[2,3,4-ij]quinazolin-5(3H)-one] | 79.5% |
| C=CC(=O)N1CCN(c2nc(=O)n3c4c(c(-c5cc(F)c(F)cc5F)c(C(F)(F)F)cc24)SC[C@H]3COCOC)[C@@H](C)C1 [Example 471, (3R)-7-((S)-4-acryloyl-2-methylpiperazin-1-yl)-3-((methoxymethoxy)methyl)-9-(trifluoromethyl)-10-(2,4,5-trifluorophenyl)-2H-[1,4]thiazino[2,3,4-ij]quinazolin-5(3H)-one] | 23.9% |
| C=CC(=O)N1[C@H](C)CN(c2nc(=O)n3c4c(c(-c5ccc(F)cc5F)c(C(F)(F)F)cc24)SC[C@H](N(C)C)C3)C[C@@H]1C [Example 586, (3R)-8-((3S,5R)-4-acryloyl-3,5-dimethylpiperazin-1-yl)-11-(2,4-difluorophenyl)-3-(dimethylamino)-10-(trifluoromethyl)-3,4-dihydro-2H,6H-[1,4]thiazepino[2,3,4-ij]quinazolin-6-one] | 40% |
| C=CC(=O)N1CCN(c2nc(=O)n3c4c(c(-c5ccc(F)cc5)c(Cl)cc24)SC[C@@H]3CN2CCN(CC)CC2)[C@@H](C)C1 [Example 410, (S)-7-((S)-4-acryloyl-2-methylpiperazin-1-yl)-9-chloro-3((4-ethylpiperazin-1-yl)methyl)-10-(4-fluorophenyl)-2H-[1,4]thiazino[2,3,4-ij]quinazolin-5(3H)-one] | 83.9% |
| C=CC(=O)N1CCN(c2nc(=O)n3c4c(c(-c5cc(Cl)c(F)cc5F)c(Cl)cc24)SC[C@@H](OC)C3)CC1 [Example 543, (3S)-8-(4-acryloylpiperazin-1-yl)-10-chloro-11-(5-chloro-2,4-difluorophenyl)-3-methoxy-3,4-dihydro-2H,6H-[1,4]thiazepino[2,3,4-ij]quinazolin-6-one] | 97% |

same assay, conditions: 10 uM, 60 min; Table 2a

| % CAF 10 uM @ 60 min | Compound |
| --- | --- |
| 87% | C[C@H]1CN(C(=O)/C=C/C(F)F)CCN1c1nc(=O)n2c3c(c(-c4cc(F)cc(F)c4)c(Cl)cc13)SCC2 [Example 67, (S,E)-9-chloro-7-(4-(4,4-difluorobut-2-enoyl)-2-methylpiperazin-1-yl)-10-(3,5-difluorophenyl)-2,3-dihydro-5H-[1,4]thiazino[2,3,4-ij]quinazolin-5-one] |
| 3% | C=C(F)C(=O)N1CCN(c2nc(=O)n3c4c(c(-c5cc(F)cc(Cl)c5)c(Cl)cc24)SCC3)[C@@H](C)C1 [Example 64, (S)-9-chloro-10-(3-chloro-5-fluorophenyl)-7-(4-(2-fluoroacryloyl)-2-methylpiperazin-1-yl)-2,3-dihydro-5H-[1,4]thiazino[2,3,4-ij]quinazolin-5-one] |

same assay, conditions: 10 uM, 1 h; Table 3

| % CAF @ 10 uM, 1h | Compound |
| --- | --- |
| 60.3% | C=CC(=O)N1CCN(c2nc(=O)n3c4c(c(-c5ccc(F)c(C(=O)NC)c5)c(Cl)cc24)SCC3)[C@@H](C)C1 [Example 85, (S)-5-(7-(4-acryloyl-2-methylpiperazin-1-yl)-9-chloro-5-oxo-2,3-dihydro-5H-[1,4]thiazino[2,3,4-ij]quinazolin-10-yl)-2-fluoro-N-methylbenzamide] |
| 51.9% | C=CC(=O)N1CCN(c2nc(=O)n3c4c(c(-c5cccc6ccccc56)c(Cl)cc24)SCC3)[C@@H](C)C1 (atropisomer, axis not shown) [Example 172, 7-((S)-4-acryloyl-2-methylpiperazin-1-yl)-9-chloro-10-(naphthalen-1-yl)-2,3-dihydro-5H-[1,4]thiazino[2,3,4-ij]quinazolin-5-one] |
| 75% | C=C(F)C(=O)N1CCN(c2nc(=O)n3c4c(c(-c5cc(F)cc(Cl)c5)c(Cl)cc24)SCC3)[C@@H](C)C1 [Example 64, (S)-9-chloro-10-(3-chloro-5-fluorophenyl)-7-(4-(2-fluoroacryloyl)-2-methylpiperazin-1-yl)-2,3-dihydro-5H-[1,4]thiazino[2,3,4-ij]quinazolin-5-one] |
| 64.9% | C=CC(=O)N1CCN(c2nc(=O)n3c4c(c(-c5ccc(F)cc5F)c(Cl)cc24)SCC3)C2CSCC21 (stereo not drawn) [Example 144, 7-(4-acryloylhexahydrothieno[3,4-b]pyrazin-1(2H)-yl)-9-chloro-10-(2,4-difluorophenyl)-2,3-dihydro-5H-[1,4]thiazino[2,3,4-ij]quinazolin-5-one] |

The remaining lines, values behind:

| Compound | % CAF @ 10 uM, 1h |
| --- | --- |
| C[C@H]1CN(C(=O)/C=C/C(F)F)CCN1c1nc(=O)n2c3c(c(-c4cc(F)cc(F)c4)c(Cl)cc13)SCC2 [Example 67, (S,E)-9-chloro-7-(4-(4,4-difluorobut-2-enoyl)-2-methylpiperazin-1-yl)-10-(3,5-difluorophenyl)-2,3-dihydro-5H-[1,4]thiazino[2,3,4-ij]quinazolin-5-one] | 91% |
| C=CC(=O)N1CCN(c2nc(=O)n3c4c(c(-c5cccc6cnn(C)c56)c(Cl)cc24)SCC3)[C@@H](C)C1 [Example 127, 7-((S)-4-acryloyl-2-methylpiperazin-1-yl)-9-chloro-10-(1-methyl-1H-indazol-7-yl)-2,3-dihydro-5H-[1,4]thiazino[2,3,4-ij]quinazolin-5-one] | 60% |
| C=CC(=O)N1CCN(c2nc(=O)n3c4c(c(-c5c(F)cc(F)cc5F)c(Cl)cc24)SC[C@H]3CCCN2C[C@@H]3C[C@H]2CO3)[C@@H](C)C1 [Example 110, (R)-3-(3-((1S,4S)-2-oxa-5-azabicyclo[2.2.1]heptan-5-yl)propyl)-7-((S)-4-acryloyl-2-methylpiperazin-1-yl)-9-chloro-10-(2,4,6-trifluorophenyl)-2,3-dihydro-5H-[1,4]thiazino[2,3,4-ij]quinazolin-5-one] | 96.6% |
| C=CC(=O)N1C2CN(c3nc(=O)n4c5c(c(-c6ccc(F)cc6F)c(Cl)cc35)SCC4)CC1CN(S(C)(=O)=O)C2 [Example 95, 7-(9-acryloyl-7-(methylsulfonyl)-3,7,9-triazabicyclo[3.3.1]nonan-3-yl)-9-chloro-10-(2,4-difluorophenyl)-2,3-dihydro-5H-[1,4]thiazino[2,3,4-ij]quinazolin-5-one] | 70.5% |

same assay, conditions: 10 μM, 1 h; Table 4

| % CAF @ 10 μM, 1 h | Compound |
| --- | --- |
| 95% | C=CC(=O)N1CCN(c2nc(=O)n3c4c(c(-c5ccc(F)cc5F)c(C(F)(F)F)cc24)SC[C@@H]3CN2CCN(CC)CC2)[C@@H](C)C1 [Example 350, (3S)-7-((S)-4-acryloyl-2-methylpiperazin-1-yl)-10-(2,4-difluorophenyl)-3-((4-ethylpiperazin-1-yl)methyl)-9-(trifluoromethyl)-2H-[1,4]thiazino[2,3,4-ij]quinazolin-5(3H)-one] |
| 96.5% | C=CC(=O)N1CCN(c2nc(=O)n3c4c(c(-c5ccc(F)cc5F)c(Cl)cc24)SC[C@H]3CCCN2C[C@@H]3C[C@H]2CO3)[C@@H](C)C1 [Example 341, (3R)-3-(3-((1S,4S)-2-oxa-5-azabicyclo[2.2.1]heptan-5-yl)propyl)-7-((S)-4-acryloyl-2-methylpiperazin-1-yl)-9-chloro-10-(2,4-difluorophenyl)-2H-[1,4]thiazino[2,3,4-ij]quinazolin-5(3H)-one] |
| 94% | C=CC(=O)N1CCN(c2nc(=O)n3c4c(c(-c5ccc(F)cc5)c(Cl)cc24)SC[C@H]3CC2CCN(CC(F)F)CC2)[C@@H](C)C1 [Example 349, (R)-7-((S)-4-acryloyl-2-methylpiperazin-1-yl)-9-chloro-3-((1-(2,2-difluoroethyl)piperidin-4-yl)methyl)-10-(4-fluorophenyl)-2H-[1,4]thiazino[2,3,4-ij]quinazolin-5(3H)-one] |
| 92% | C=CC(=O)N1CCN(c2nc(=O)n3c4c(c(-c5ccc(F)cc5F)c(Cl)cc24)SC[C@H]3CC2CCN(CC(F)F)CC2)[C@@H](C)C1 [Example 348, (3R)-7-((S)-4-acryloyl-2-methylpiperazin-1-yl)-9-chloro-3-((1-(2,2-difluoroethyl)piperidin-4-yl)methyl)-10-(2,4-difluorophenyl)-2H-[1,4]thiazino[2,3,4-ij]quinazolin-5(3H)-one] |
